Read-outs that look alike come from different tables or passages of the source.
Assay: Test 2: Pharmacokinetic test in dogs
Type: in vivo, dog
Conditions: for concentration at 2 min / concentration at 5 min / concentration at 10 min / concentration at 20 min / concentration at 0.5 h / concentration at 0.75 h / concentration at 1 h / concentration at 1.5 h / concentration at 2 h / concentration at 4 h / concentration at 5 h / concentration at 6 h / concentration at 3 h: 10 mg/kg; for concentration at 0.5 h: 30 min; for concentration at 0.75 h: 45 min; for concentration at 1 h: 60 min; for concentration at 1.5 h: 90 min; for concentration at 2 h: 120 min; for concentration at 4 h: 240 min; for concentration at 5 h: 300 min; for concentration at 6 h: 360 min; for concentration at 3 h: 180 min; for bioavailability: oral route
Description: Male rats and dogs were fasted for 24 hours and used as the experimental animals. […] Bloods were collected from the animals at given time intervals and then immediately mixed with methanol and zinc sulfate. Finally, the upper layer of the mixture was quantitatively analyzed at ultraviolet wavelength of 231 nm to measure the drug concentration in blood by HPLC.

[1] = dog, blood, iv, Dog-1, i.v. 10 mg/kg, read-out: Blood concentration
[2] = dog, blood, iv, Dog-2, i.v. 10 mg/kg, read-out: Blood concentration
[3] = dog, blood, iv, dogs, i.v. 10 mg/kg, read-out: Blood concentration, Average(+error)
[4] = dog, blood, po, Dog-1, oral 10 mg/kg, read-out: Blood concentration
[5] = dog, blood, po, Dog-2, oral 10 mg/kg, read-out: Blood concentration
[6] = dog, blood, po, dogs, oral 10 mg/kg, read-out: Blood concentration, Average(+error)

## CN(C(=O)[C@H](Cc1ccc(C(=N)NN)cc1)NS(=O)(=O)c1ccc2ccccc2c1)C1CCCC1 [Example 1, (S)-N-cyclopentyl-N-methyl-3-(4-amidrazonophenyl)-2-(2-naphthylsulfonylamino)propionamide]
[1]
  concentration at 2 min: 29100 ng/mL
  concentration at 5 min: 9080 ng/mL
  concentration at 10 min: 5940 ng/mL
  concentration at 20 min: 3610 ng/mL
  concentration at 0.5 h: 2430 ng/mL
  concentration at 0.75 h: 1940 ng/mL
  concentration at 1 h: 1470 ng/mL
  concentration at 1.5 h: 1270 ng/mL
  concentration at 2 h: 1090 ng/mL
  concentration at 4 h: 544 ng/mL
  concentration at 5 h: 315 ng/mL
  concentration at 6 h: 317 ng/mL
[2]
  concentration at 2 min: 36600 ng/mL
  concentration at 5 min: 5230 ng/mL
  concentration at 10 min: 3280 ng/mL
  concentration at 20 min: 1800 ng/mL
  concentration at 0.5 h: 1340 ng/mL
  concentration at 0.75 h: 859 ng/mL
  concentration at 1 h: 690 ng/mL
  concentration at 1.5 h: 501 ng/mL
  concentration at 2 h: 377 ng/mL
  concentration at 4 h: 129 ng/mL
  concentration at 5 h: 107 ng/mL
  concentration at 6 h: 92 ng/mL
[3]
  concentration at 2 min: 32900 ng/mL
  concentration at 5 min: 7160 ng/mL
  concentration at 10 min: 4610 ng/mL
  concentration at 20 min: 2710 ng/mL
  concentration at 0.5 h: 1880 ng/mL
  concentration at 0.75 h: 1400 ng/mL
  concentration at 1 h: 1080 ng/mL
  concentration at 1.5 h: 885 ng/mL
  concentration at 2 h: 733 ng/mL
  concentration at 4 h: 337 ng/mL
  concentration at 5 h: 211 ng/mL
  concentration at 6 h: 204 ng/mL
[4]
  concentration at 10 min: 1390 ng/mL
  concentration at 20 min: 2080 ng/mL
  concentration at 0.5 h: 1940 ng/mL
  concentration at 0.75 h: 1890 ng/mL
  concentration at 1 h: 2220 ng/mL
  concentration at 1.5 h: 1270 ng/mL
  concentration at 2 h: 774 ng/mL
  concentration at 3 h: 663 ng/mL
  concentration at 4 h: 812 ng/mL
  concentration at 5 h: 51 ng/mL
  concentration at 6 h: 118 ng/mL
[5]
  concentration at 10 min: 15 ng/mL
  concentration at 20 min: 17 ng/mL
  concentration at 0.5 h: 105 ng/mL
  concentration at 0.75 h: 558 ng/mL
  concentration at 1 h: 1310 ng/mL
  concentration at 1.5 h: 935 ng/mL
  concentration at 2 h: 730 ng/mL
  concentration at 3 h: 616 ng/mL
  concentration at 4 h: 318 ng/mL
  concentration at 5 h: 222 ng/mL
  concentration at 6 h: 153 ng/mL
[6]
  concentration at 10 min: 702 ng/mL
  concentration at 20 min: 1050 ng/mL
  concentration at 0.5 h: 1020 ng/mL
  concentration at 0.75 h: 1220 ng/mL
  concentration at 1 h: 1760 ng/mL
  concentration at 1.5 h: 1100 ng/mL
  concentration at 2 h: 752 ng/mL
  concentration at 3 h: 640 ng/mL
  concentration at 4 h: 565 ng/mL
  concentration at 5 h: 136 ng/mL
  concentration at 6 h: 135 ng/mL
dog, blood, dogs, read-out: Bioavailability
  bioavailability: 61%
dog, blood, dogs, read-out: Elimination Half-life, Average + (error)
  half-life: 1.63 h
Dogs vs argatroban (40 minutes) in human being
  elimination half-life in dogs compared with argatroban in human being: twice longer or more than that of commercially available argatroban
Dogs vs rats, intravenous
  elimination half-life in dogs compared with rats: twice longer or more than that in rats
dogs, intravenous
  distribution and disappearance after intravenous injection: rapidly distributed and then slowly disappeared
dogs
  bioavailability: 61 (15) %
Oral absorption and elimination half-life
  pharmacokinetic characteristics compared with argatroban: better pharmacokinetic characteristics than argatroban

Source: patent publication US5747535A, “Selective thrombin inhibitors” (priority 1995, dated 1998)
